Laboratory results taken from patent US8507559B2, “Cyclohexenyl modulators of chemokine receptor activity” (Bristol-Myers Squibb Company, priority 2008, dated 2013).

target: T1, CCR2 (Homo sapiens, UniProt P41597); assay: CCR2 binding: antagonism of 125I-MCP-1 binding (human PBMC / THP-1 whole cell); conditions: n = 1 unless otherwise noted
T1 construct: THP-1 human monocytic leukemic cell line, which expresses endogenous CCR2; endogenous in cells; host or cells: human peripheral blood mononuclear cells, human monocytes or THP-1 cells
T1 sequence (P41597 1-360 isoform P41597-2): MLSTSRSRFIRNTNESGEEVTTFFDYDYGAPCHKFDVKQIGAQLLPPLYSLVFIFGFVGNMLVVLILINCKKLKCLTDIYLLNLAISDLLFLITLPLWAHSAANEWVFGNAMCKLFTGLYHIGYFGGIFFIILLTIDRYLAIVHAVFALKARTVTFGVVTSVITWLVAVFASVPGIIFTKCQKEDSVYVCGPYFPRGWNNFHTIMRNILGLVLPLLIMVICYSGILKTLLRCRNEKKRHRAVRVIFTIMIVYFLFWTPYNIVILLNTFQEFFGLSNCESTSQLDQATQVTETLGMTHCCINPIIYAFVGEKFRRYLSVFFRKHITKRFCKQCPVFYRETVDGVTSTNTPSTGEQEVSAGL
Procedure: Antagonism of MCP-1 Binding to Human PBMC
Millipore filter plates (#MABVN1250) are treated with 100 μl of binding buffer (0.5% bovine serum albumin, 20 mM HEPES buffer and 5 mM magnesium chloride in RPMI 1640 media) for thirty minutes at room temperature. To measure binding, 50 μl of binding buffer, with or without a known concentration compound, is combined with 50 μl of ^125-I labeled human MCP-1 (to give a final concentration of 150 pM radioligand) and 50 μl of binding buffer containing 5×10^5 cells. Cells used for such binding assays can include human peripheral blood mononuclear cells isolated by Ficoll-Hypaque gradient centrifugation, human monocytes (Weiner et al., J. Immunol. Methods. 1980, 36, 89), or the THP-1 cell line which expresses the endogenous receptor. The mixture of compound, cells and radioligand are incubated at room temperature for thirty minutes. Plates are placed onto a vacuum manifold, vacuum applied, and the plates washed three times with binding buffer containing 0.5M NaCl. The plastic skirt is removed from the plate, the plate allowed to air dry, the wells punched out and counted. The percent inhibition of binding is calculated using the total counts obtained in the absence of any competing compound and the background binding determined by addition of 100 nM MCP-1 in place of the test compound.
THP-1 Monocytic Cell Binding: Whole Cell-based Assay
The human CCR2 binding assay was also established with the THP-1 human monocytic leukemic cell line, which expresses endogenous CCR2, using ^125I-human MCP-1 as the tracer ligand. Radioligand competition binding assays were used for assessment of binding affinity of test compounds to the CCR2 receptor. For radioligand competition studies, 100 μl containing 2.5×10^5 THP-1 cells/well (in assay buffer containing 50 mM HEPES, pH7.4, 5 mM MgCl2, 1 mM CaCl2 and 0.5% BSA) were added to 96-well assay plates containing the test compounds in 3-fold serial dilution, with final concentrations ranging from 5 μM to 100 pM. Subsequently, 50 μl ^125I-MCP-1 radioligand at a final concentration of 0.2 nM in assay buffer were added to the reaction. After a 90 minute incubation period at room temperature, the binding reaction was terminated by harvesting on GF/B filter plates (PerkinElmer Cat. No. 6005177) followed by washing with ice-cold wash buffer (50 mM HEPES, pH 7.4, 0.1% BSA, 0.5 M NaCl) to remove unbound ligand. After washing, the plate was dried for 45 minutes at 60° C. followed by addition of 40 μl MicroScint 20 scintillation fluid, sealed and analyzed by the Packard TopCount reader. Non-specific binding was determined in the presence of 10 μM (a molar excess of 5000 fold) of an in-house CCR2 small molecule antagonist (CCR2 IC50=2 nM). Specific binding of ^125I-MCP-1 was calculated as the difference between total and non-specific binding. The competition data was plotted as a percentage inhibition of radioligand specific bound in the absence of test compound (percent of total signal). After correcting for non-specific binding, IC50 values were determined. The IC50 is defined as the concentration of test compound required to reduce ^125I-MCP-1 specific binding by 50% and was calculated using the four parameter logistic equation to fit the normalized data.

Compound | Ki [nM]
(4RS,6RS)-6-(4-chloro-3-(trifluoromethyl)-phenyl)-4-(hydroxymethyl)-6-methylcyclohex-1-enecarboxylic acid [Example 9] | 310
COc1ccccc1C1(C)CCCC=C1C(=O)O (stereo not shown) [Example 1-07, 6-(2-methoxyphenyl)-6-methyl methylcyclohex-1-enecarboxylic acid] | 10000
C[C@@H]1CC=C(C(=O)O)[C@@](C)(c2ccc(Cl)c(C(F)(F)F)c2)C1 (racemic) [Example 1-13, (4RS,6RS)-6-(4-chloro-3-(trifluoromethyl)-phenyl)-4,6-dimethylcyclohex-1-enecarboxylic acid] | 11
C[C@@H]1CC=C(C(=O)O)[C@@](C)(c2ccccc2)C1 (racemic) [Example 1-24, (4RS,6RS)-4,6-dimethyl-6-phenylcyclohex-1-enecarboxylic acid] | 1000
C[C@@H]1CC=C(C(=O)O)[C@@](C)(c2ccc(Cl)cc2)C1 (racemic) [Example 1-21, (4RS,6RS)-6-(4-chlorophenyl)-4,6-dimethylcyclohex-1-enecarboxylic acid] | 900
CC(C)(C)OC[C@@H]1CC=C(C(=O)O)[C@@](C)(c2ccc(Cl)c(C(F)(F)F)c2)C1 (racemic) [Example 10, (4RS,6RS)-4-(tert-butoxymethyl)-6-(4-chloro-3-(trifluoromethyl)phenyl)-6-methylcyclohex-1-enecarboxylic acid] | 6200
C[C@@H]1CC=C(C(=O)O)[C@@](C)(c2ccc(Cl)c(C(F)(F)F)c2)C1 [Example 4-01b, (4R,6R)-6-(4-chloro-3-(trifluoromethyl)phenyl)-4,6-dimethylcyclohex-1-enecarboxylic acid] | 4500
Cc1ccc([C@@]2(C)C[C@H](C)CC=C2C(=O)O)cc1 (racemic) [Example 1-17, (4RS,6RS)-4,6-dimethyl-6-p-tolylcyclohex-1-enecarboxylic acid] | 2600
Cc1ccc([C@@]2(C)C[C@H](C)CC=C2C(=O)O)cc1Cl (racemic) [Example 1-04, (4RS,6RS)-6-(3-chloro-4-methylphenyl)-4,6-dimethylcyclohex-1-enecarboxylic acid] | 69
CC1(c2cccc(Cl)c2)CCCC=C1C(=O)O (racemic) [Example 1-09, 6-(3-chlorophenyl)-6-methylcyclohex-1-enecarboxylic acid] | 3000
C[C@@H]1CC=C(C(=O)O)[C@@](C)(c2cc(Cl)cc(Cl)c2)C1 (racemic) [Example 1-30, (4RS,6RS)-6-(3,5-dichlorophenyl)-4,6-dimethylcyclohex-1-enecarboxylic acid] | 110
C[C@@H]1CC=C(C(=O)O)[C@@](C)(c2ccc(F)cc2)C1 (racemic) [Example 1-22, (4RS,6RS)-6-(4-fluorophenyl)-4,6-dimethylcyclohex-1-enecarboxylic acid] | 480
Cc1cccc([C@@]2(C)C[C@H](C)CC=C2C(=O)O)c1 (racemic) [Example 1-18, (4RS,6RS)-4,6-dimethyl-6-m-tolylcyclohex-1-enecarboxylic acid] | 930
C[C@@H]1CC=C(C(=O)O)[C@@](C)(c2ccc(F)c(F)c2)C1 (racemic) [Example 1-05, (4RS,6RS)-6-(3,4-difluorophenyl)-4,6-dimethylcyclohex-1-enecarboxylic acid] | 3500
C[C@@H]1CC=C(C(=O)O)[C@@](C)(c2cccc(F)c2)C1 (racemic) [Example 1-23, (4RS,6RS)-6-(3-fluorophenyl)-4,6-dimethylcyclohex-1-enecarboxylic acid] | 3700
C[C@@H]1CC=C(C(=O)O)[C@@](C)(c2cccc(-c3ccccc3)c2)C1 (racemic) [Example 1-03, (4RS,6RS)-6-(3-phenylphenyl)-4,6-dimethylcyclohex-1-enecarboxylic acid] | 250
